# Data taken from article PMC6151488, “Structure, Absolute Configuration, and Antiproliferative Activity of Abietane and Icetexane Diterpenoids from Salvia ballotiflora” (Molecules : A Journal of Synthetic Chemistry and Natural …, 2017).
# Several values for one entry are separate records, joined by “and”; a condition that tells them apart may be missing. Identical values can stand only once. Like-named read-outs stand apart in the source and are kept apart here.
# How the values were obtained:
# [1] = Scavenging activity on free radical DPPH; settings: 30 min, 37 °C; for IC50: DPPH 100 μM, mean ± SEM; for DPPH inhibitory effect (%): at 100 μM
# Description: Free radical scavenging activity was measured using an adapted method of Mellors and Tappel. The test was carried out in 96-well microplates. A 50-μL aliquot of the solution of the test compound was mixed with 150 μL of an ethanol solution of DPPH (final concentration 100 μM). The mixture was incubated at 37 °C for 30 min, and the absorbance was then measured at 515 nm using a BioTek microplate reader SYNERGY HT. The percent inhibition was determined by comparison with a 100-μM DPPH ethanol blank solution.
# [2] = tested on: U251 (human glioblastoma); experiment: Sulforhodamine B (SRB) cytotoxicity assay, U251; assay type: cell-based
# Description: (§1) The natural products were screened in vitro against the following human cancer cell lines: human mammary adenocarcinoma (MCF-7), human chronic myelogenous leukemia (K562), human glioblastoma (U251), human lung adenocarcinoma (SKLU-1), human colon cancer (HCT-15), human prostate cancer (PC-3), healthy gingival human fibroblasts (FGH), and normal monkey kidney cell lines, which were supplied by the National Cancer Institute (NCI, USA) and American Type Culture Collection (ATTC). The human tumor cytotoxicity was determined using the protein-binding dye sulforhodamine B (SRB) in a microculture assay to measure cell growth, as described in the protocol established by the NCI [30]. The cell lines were cultured in RPMI-1640 medium supplemented with 10% fetal bovine serum, 2 mM L-glutamine, 10,000 units/mL penicillin G sodium, 10,000 μg/mL streptomycin sulfate, and 25 μg/mL amphotericin B (Gibco), and 1% non-essential amino acids (Gibco). They were maintained at 37 °C in a humidified atmosphere with 5% CO2.
# (§2) Cytotoxicity after treatment of the tumors cells and normal cells with the test compounds were determined using the protein-binding dye sulforhodamine B (SRB) in a microculture assay to measure cell growth. The cells were removed from the tissue culture flasks by treatment with trypsin, and diluted with fresh media. Of these cell suspensions, 100 μL containing 5000–10,000 cells per well were pipetted into 96-well microtiter plates (Costar) and the material was incubated at 37 °C for 24 h in a 5% CO2 atmosphere. Subsequently, 100 μL of a solution of the compound obtained by diluting the stocks were added to each well. The cultures were exposed to the compound for 48 h. After the incubation period, cells were fixed to the plastic substratum by the addition of 50 μL of cold 50% aqueous trichloroacetic acid. The plates were incubated at 4 °C for 1 h, washed with tap water, and air-dried. The trichloroacetic-acid-fixed cells were stained by the addition of 0.4% SRB. The free SRB solution was then removed by washing with 1% aqueous acetic-acid. The plates were air-dried, and the bound dye was dissolved by the addition of 10 mM unbuffered Tris base (100 μL). The plates were placed on a shaker for 10 min, and the absorption was determined at 515 nm using an ELISA plate reader (Bio-Tex Instruments).
# [3] = tested on: SKLU-1 (human lung adenocarcinoma); experiment: Sulforhodamine B (SRB) cytotoxicity assay, SKLU-1; assay type: cell-based; settings: for IC50: SRB assay, 48 h exposure, mean ± SD, read-out: IC50 antiproliferative activity, SKLU-1; for inhibition at 50 µM: primary screening at 50.0 μM, NC = No cytotoxic
# Description: as §1, with “CO2. The viability of the cells used in the experiments exceeded 95%, as determined with trypan blue.” for “CO2.”
# as §2
# [4] = tested on: COS-7 normal monkey kidney; experiment: Sulforhodamine B (SRB) cytotoxicity assay, COS-7 normal cell line; assay type: cell-based; settings: Primates, mean ± SD
# Description: as §1, with “CO2. The viability of the cells used in the experiments exceeded 95%, as determined with trypan blue.” for “CO2.”
# as §2, with “The plates were incubated at 4 °C for 1 h, washed with tap water, and air-dried. The trichloroacetic-acid-fixed cells were stained by the addition of 0.4% SRB. The free SRB solution was then removed by washing with 1% aqueous acetic-acid. The plates were air-dried, and the bound dye was dissolved by the addition of 10 mM unbuffered Tris base (100 μL).” left out
# [5] = tested on: K562 (human chronic myelogenous leukemia); experiment: Sulforhodamine B (SRB) cytotoxicity assay, K562; assay type: cell-based; settings: Homo sapiens, K562
# Description: as §1, with “CO2. The viability of the cells used in the experiments exceeded 95%, as determined with trypan blue.” for “CO2.”
# as §2
# [6] = tested on: MCF-7 (human mammary adenocarcinoma); experiment: Sulforhodamine B (SRB) cytotoxicity assay, MCF-7; assay type: cell-based; settings: for inhibition at 50 µM: primary screening at 50.0 μM
# Description: as §1, with “CO2. The viability of the cells used in the experiments exceeded 95%, as determined with trypan blue.” for “CO2.”
# as §2
# [7] = tested on: PC-3 (human prostate cancer); experiment: Sulforhodamine B (SRB) cytotoxicity assay, PC-3; assay type: cell-based
# Description: as §1, with “CO2. The viability of the cells used in the experiments exceeded 95%, as determined with trypan blue.” for “CO2.”
# as §2
# [8] = tested on: HCT-15 (human colon cancer); experiment: Sulforhodamine B (SRB) cytotoxicity assay, HCT-15; assay type: cell-based
# Description: as §1, with “CO2. The viability of the cells used in the experiments exceeded 95%, as determined with trypan blue.” for “CO2.”
# as §2
# [9] = tested on: TPA-induced ear edema; experiment: TPA-induced ear edema test in mice; assay type: in vivo; settings: mice CD-1, 1.0 μmol ear^-1 topical, 4 h after TPA, mean ± SEM; for Inhibition of Edema (%): NA = Non-active
# Description: Male CD-1 mice weighing 25–30 g were maintained under standard laboratory conditions in the animal house (temperature 24 ± 2 °C) in a 12/12 h light/dark cycle, fed a laboratory diet and water ad libitum, following the Mexican official norm NOM-062-Z00-1999.
# The TPA-induced ear edema assay in mice was performed as reported in reference. A solution of TPA (2.5 μg) in ethanol (10 μL) was applied topically to both faces (5 μL each ear) of the right ear of the mice, 10 min after solutions of the test substances in their respective solvents were applied (10 μL each face). The left ear received ethanol (10 μL) first, followed by 20 μL of the respective solvent. The mice were killed with CO2 four hours later. A 7-mm diameter plug was removed from each ear. The swelling was assessed as the difference in weight between the left and the right ear. Control animals received the correspondent solvent in each case. Edema inhibition (EI %) was calculated by the equation EI % = 100 − (B × 100/A), where A is the edema induced by TPA alone and B is the edema induced by TPA plus the sample. Indomethacin and celecoxib were used as reference compounds.
# [10] = tested on: six human cancer cell lines (U251, PC-3, K562, HCT-15, MCF-7, SKLU-1) and FGH; experiment: SRB primary screening, whole panel (result in words); assay type: cell-based; settings: primary screening at 50.0 μM, complete panel
# Description: The same biological activity was also recently described for icetexane-derivatives isolated from Premna and Amentotaxus species. […] These facts prompted us to assay diterpenoids 3, 4, 6–8 and 10 for antiproliferative activity using six human cancer cell lines (U251, PC-3, K562, HCT-15, MCF-7, and SKLU-1), and a primary culture of healthy gingival human fibroblasts (FGH) at 1.0 or 50.0 μM (when cytotoxicity at 50.0 μM results were too high). […] Overall, the antiproliferative activity determined for 7 was lower than that observed for 6.
# as §1, with “CO2. The viability of the cells used in the experiments exceeded 95%, as determined with trypan blue.” for “CO2.”
# Cytotoxicity after treatment of the tumors cells and normal cells with the test compounds were determined using the protein-binding dye sulforhodamine B (SRB) in a microculture assay to measure cell growth. […] The plates were placed on a shaker for 10 min, and the absorption was determined at 515 nm using an ELISA plate reader (Bio-Tex Instruments).
# [11] = primary screening at 1.0 μM, mean n = 2
# [12] = Homo sapiens, SK-LU-1, mean n = 2, read-out: Antiproliferative activity (%), SKLU-1
# [13] = Homo sapiens, MCF7, mean n = 2, NC = No cytotoxic, read-out: Antiproliferative activity (%), MCF-7
structure (smiles),measurement,setting,value
"O=c1c(O)c(-c2ccc(O)c(O)c2)oc2cc(O)cc(O)c12 [quercetin, reference compound]",IC50,[1],10900 ± 500 nM
"CC(C)C1=C(O)C(=O)C2=CC3=CCCC4(C)C(=O)OC(C=C2C1=O)C34 (centres unmarked) [Compound 6, Anastomosine]",inhibition at 1 µM,"[2]; Homo sapiens, U-251, primary screening at 1.0 μM, mean n = 2, read-out: Antiproliferative activity (%), U251",98.4%
same,"Antiproliferative activity (%), U251",[2]; [11],very toxic
same,"SI (selectivity index), U251",[2]; quotient of IC50 of COS-7 / IC50 of U251,2.3
same,IC50,"[3]; Homo sapiens, SK-LU-1, 48 h",820 ± 60 nM
same,inhibition at 1 µM,"[3]; Homo sapiens, SK-LU-1, primary screening at 1.0 μM, mean n = 2, read-out: Antiproliferative activity (%), SKLU-1",100%
same,IC50,[3],460 ± 50 nM
same,"Antiproliferative activity (%), SKLU-1",[3]; [11],very toxic
same,"SI (selectivity index), SKLU-1",[3]; quotient of IC50 of COS-7 / IC50 of SKLU-1,1.3
same,IC50,[4],610 ± 7 nM
same,inhibition at 1 µM,"[5]; primary screening at 1.0 μM, mean n = 2, read-out: Antiproliferative activity (%), K562",76.4%
same,inhibition at 1 µM,"[6]; Homo sapiens, MCF7, primary screening at 1.0 μM, mean n = 2, NC = No cytotoxic, read-out: Antiproliferative activity (%), MCF-7",51.3%
same,"Antiproliferative activity (%), MCF-7","[6]; primary screening at 1.0 μM, mean n = 2, NC = No cytotoxic",moderately toxic
same,inhibition at 1 µM,"[7]; primary screening at 1.0 μM, mean n = 2, read-out: Antiproliferative activity (%), PC-3",82.3%
same,inhibition at 1 µM,"[8]; primary screening at 1.0 μM, mean n = 2, read-out: Antiproliferative activity (%), HCT-15",85.6%
same,Edema,[9],15.97 ± 0.61 mg
same,Inhibition of Edema (%),[9],non-active
same,DPPH inhibitory effect (%),[1],8.2%
same,melting point,,220 to 224 °C
"Cc1ccc(-c2cc(C(F)(F)F)nn2-c2ccc(S(N)(=O)=O)cc2)cc1 [Celecoxib, celecoxib, reference compound]",Edema,[9],6.94 ± 1.56 mg
same,Inhibition of Edema (%),[9],54.34 ± 10.28%
same,Inhibition of Edema (%),[9]; listed as celecoxib,54.3 ± 10.3%
"CC(C)c1c(O)c(O)c2c(c1O)C(=O)CC1C3(CCCC1(C)C(=O)O3)C2 (centres unmarked) [Compound 4, 6,7,11,14-Tetrahydro-7-oxoicetexone]",inhibition at 50 µM,"[2]; Homo sapiens, U-251, primary screening at 50.0 μM, mean n = 2, NC = No cytotoxic, read-out: Antiproliferative activity (%), U251",100%
same,inhibition at 50 µM,[3]; [12],96.9%
same,inhibition at 50 µM,"[5]; primary screening at 50.0 μM, mean n = 2, NC = No cytotoxic, read-out: Antiproliferative activity (%), K562",100%
same,inhibition at 50 µM,[6]; [13],99%
same,inhibition at 50 µM,"[7]; primary screening at 50.0 μM, mean n = 2, NC = No cytotoxic, read-out: Antiproliferative activity (%), PC-3",80.3%
same,inhibition at 50 µM,"[8]; primary screening at 50.0 μM, mean n = 2, NC = No cytotoxic, read-out: Antiproliferative activity (%), HCT-15",76.7%
same,Toxicity to the complete panel (in words),[10],very toxic
same,IC50,[1],98400 ± 3300 nM
same,DPPH inhibitory effect (%),[1],64.5%
same,melting point,,130 to 135 °C
"Cc1c(C)c2c(c(C)c1O)CC[C@@](C)(CCC[C@H](C)CCC[C@H](C)CCCC(C)C)O2 [α-tocopherol, reference compound]",IC50,[1],31700 ± 1040 nM
"CC(C)C1=C(O)C(=O)C2=C(C1=O)C(O)CC1C3(C)CCCC21C(O)OC3 (centres unmarked) [Compound 10, conacytone]",inhibition at 50 µM,[3]; [12],11.8%
same,inhibition at 50 µM,[6]; [13],14.7%
same,Toxicity to the complete panel (in words),[10],no toxicity
same,Edema,[9],11.77 ± 047 mg
same,Inhibition of Edema (%),[9],25.4 ± 3.0% and 25.37 ± 2.98 %
same,DPPH inhibitory effect (%),[1],4.8%
"COc1ccc2c(c1)c(CC(=O)O)c(C)n2C(=O)c1ccc(Cl)cc1 [Indometacin, Indomethacin, reference compound]",Edema,[9],2.88 ± 0.73 mg
same,Inhibition of Edema (%),[9],78.76 ± 7.68 %
same,Inhibition of Edema (%),[9]; listed as indomethacine,78.8 ± 7.7%
"COc1cccc2c1C(=O)c1c(O)c3c(c(O)c1C2=O)C[C@@](O)(C(=O)CO)C[C@@H]3O[C@H]1C[C@H](N)[C@H](O)[C@H](C)O1 [Adriamicyn, adriamycin, reference compound]",IC50,"[2]; Homo sapiens, U-251, 48 h, SRB assay, 48 h exposure, mean ± SD, read-out: IC50 antiproliferative activity, U251",80 ± 3 nM
same,inhibition at 0.5 µM,"[2]; Homo sapiens, U-251, positive control at 0.5 μM, mean n = 2, read-out: Antiproliferative activity (%), U251",96%
same,IC50,"[3]; Homo sapiens, SK-LU-1, 48 h",50 ± 3 nM
same,inhibition at 0.5 µM,"[3]; Homo sapiens, SK-LU-1, positive control at 0.5 μM, mean n = 2, read-out: Antiproliferative activity (%), SKLU-1",90%
same,IC50,[4],250 ± 9 nM
same,IC50,"[5]; SRB assay, 48 h exposure, mean ± SD, read-out: IC50 antiproliferative activity, K562",200 ± 20 nM
same,inhibition at 0.5 µM,"[5]; positive control at 0.5 μM, mean n = 2, read-out: Antiproliferative activity (%), K562",100%
same,IC50,"[6]; Homo sapiens, MCF7, SRB assay, 48 h exposure, mean ± SD, read-out: IC50 antiproliferative activity, MCF-7",230 ± 20 nM
same,inhibition at 0.5 µM,"[6]; Homo sapiens, MCF7, positive control at 0.5 μM, mean n = 2, read-out: Antiproliferative activity (%), MCF-7",99.1%
same,inhibition at 0.5 µM,"[7]; positive control at 0.5 μM, mean n = 2, read-out: Antiproliferative activity (%), PC-3",85.2%
same,inhibition at 0.5 µM,"[8]; positive control at 0.5 μM, mean n = 2, read-out: Antiproliferative activity (%), HCT-15",86.9%
